This is an account of results in patent US20240132498A1, “CRYSTALLINE FORMS OF 5-(3,4-DIFLUOROBENZYL)-8-((1R,4R)-4-METHYLCYCLOHEXYL)-6,9-DIOXO-2,5,8-TRIAZASPIRO[3.5]NONANE-2-CARBALDEHYDE” (Cytokinetics, Incorporated, priority 2022, published 2024).

Data set [1] is described as follows: Short-term static storage stability of the solid (XRPD, HPLC). The data set is classed as physicochemical. As to the method: Purity analysis was performed on an Agilent HP1100/Infinity 111260 series system equipped with a diode array detector and using OpenLAB software. The full method details are provided below.
For short-term (8 days or fewer) stability experiments, solid material was placed into open vials at elevated storage conditions, unless otherwise stated. These conditions were achieved using saturated salt solutions at specific temperatures within sealed containers. Storage containers were pre-equilibrated prior to input of samples.

The nature of data set [2]: Competitive slurry experiments between Form I and Form II. Format: physicochemical. The settings on record: competitive slurries of a mechanical mixture of Form I and Form II, range of temperatures (5-50). The source says:
The results of the competitive slurry experiments are provided below in Table 6.

For `C[C@H]1CC[C@H](N2CC(=O)N(Cc3ccc(F)c(F)c3)C3(CN(C=O)C3)C2=O)CC1` [Form II, 5-(3,4-difluorobenzyl)-8-((1r,4r)-4-methylcyclohexyl)-6,9-dioxo-2,5,8-triazaspiro[3.5]nonane-2-carbaldehyde], in data set [1] (Before Storage), the HPLC purity worked out at 98.2%. Further, the XRPD result is on record as “Form II” in data set [1] (Before Storage), “Unchanged by XRPD” in data set [1] (Storage at 25° C./97% RH for 8 days) and “Unchanged by XRPD” in data set [1] (Storage at 40° C./75% RH for 8 days). Moreover, the “relative thermodynamic stability of Form I and Form II” value in data set [2] is “most stable form”.
